Data: publication PMC10973839, “CHF6297: a novel potent and selective p38 MAPK inhibitor with robust anti-inflammatory activity and suitable for inhaled pulmonary administration as dry powder” (Frontiers in Pharmacology, 2024)

Tests used:
human p38α = molecular target: T1, human p38α (Homo sapiens, UniProt Q16539); assay: KINOMEscan competition binding assay (DiscoverX), p38α; details: read-out: Kd (mean ± s.d.)
T1 construct: purchased DiscoverX
From the text: (§1) The KINOMEscan® platform (DiscoverX) was used, which uses a novel and proprietary active site-directed competition binding assay to quantitatively measure the interactions between human p38 isoforms and the target compound.

BEAS-2B = assay: TNF-α-evoked IL-8 release; assay type: cell-based, human; details: TNF-α 1 ng/mL; compared with the CSE-evoked assay
human p38γ = molecular target: T2, human p38γ (Homo sapiens, UniProt P53778); assay: AlphaScreen kinase activity assay, human p38γ; assay type: biochemical
T2 construct: GST; purchased Invitrogen
T2 sequence (P53778 1-367): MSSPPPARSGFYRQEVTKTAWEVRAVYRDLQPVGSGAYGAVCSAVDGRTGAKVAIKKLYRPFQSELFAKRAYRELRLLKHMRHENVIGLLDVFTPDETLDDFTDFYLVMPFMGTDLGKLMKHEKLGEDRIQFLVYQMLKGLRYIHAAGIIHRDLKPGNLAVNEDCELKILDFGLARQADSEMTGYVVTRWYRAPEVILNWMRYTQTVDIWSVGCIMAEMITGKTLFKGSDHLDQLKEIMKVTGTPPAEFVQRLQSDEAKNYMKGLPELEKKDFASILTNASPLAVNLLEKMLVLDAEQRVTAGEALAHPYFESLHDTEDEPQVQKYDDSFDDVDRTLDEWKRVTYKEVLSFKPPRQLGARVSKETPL
Description: (§2) The inhibitory activity of CHF6297 was determined using an AlphaScreen® (PerkinElmer)-based kinase activity assay as previously described ([Armani et al., 2022]). Kinase reactions consisted of 25 mM 4-(2-hydroxyethyl)-1-piperazine ethanesulfonic acid (HEPES), pH 7.5; 10 mM MgCl2; 100 μM Na3VO4; 2 mM DTT; 0.05 mg/mL Tween^TM 20; 100 pM solution of p38α, p38β, p38δ, or p38γ (Invitrogen); 1% DMSO; and 0.3 μg/mL ATF-2 fusion protein (New England Biolabs). Compounds were incubated under these conditions for 2 h, at 25°C, prior to the initiation of kinase activity by the addition of 250 μM ATP. […] Detection was performed by measuring luminescence following the addition of AlphaScreen donor beads (PerkinElmer, 6765300) and Protein A AlphaScreen acceptor beads (PerkinElmer, 6760137), both at a final concentration of 20 μg/mL. IC50 values were determined from concentration–response curves. […]
(§3) CHF6297 was tested in biochemical enzymatic assays to determine its potency as an inhibitor of human p38α (MAPK14) and of the other human p38 isoforms, p38β (MAPK11), p38γ ([…]), and p38δ ([…]) ([Armani et al., 2022]). Activity in the primary screening assay was determined using AlphaScreen technology, in which a peptide (ATF2) is phosphorylated by the appropriate GST-tagged p38 protein isoform in the presence of CHF6297 at concentrations from semi-logarithmic dilutions. […]

human p38α (MAPK14) = molecular target: T3, human p38α (MAPK14) (Homo sapiens, UniProt Q16539); assay: AlphaScreen kinase activity assay, human p38α; assay type: biochemical
T3 construct: GST; purchased Invitrogen
T3 sequence (Q16539 whole entry): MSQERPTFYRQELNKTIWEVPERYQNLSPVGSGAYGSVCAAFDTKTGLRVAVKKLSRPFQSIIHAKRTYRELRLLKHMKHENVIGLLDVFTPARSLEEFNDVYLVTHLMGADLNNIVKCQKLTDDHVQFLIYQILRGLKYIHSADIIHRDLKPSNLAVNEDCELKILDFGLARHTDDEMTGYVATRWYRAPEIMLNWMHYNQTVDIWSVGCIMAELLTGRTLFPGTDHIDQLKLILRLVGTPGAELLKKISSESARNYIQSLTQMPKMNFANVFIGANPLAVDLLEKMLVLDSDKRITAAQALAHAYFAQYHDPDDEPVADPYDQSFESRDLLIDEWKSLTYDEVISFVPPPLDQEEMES
Description: as §2, §3

human p38β = molecular target: T4, human p38β (Homo sapiens, UniProt Q15759); assay: KINOMEscan competition binding assay (DiscoverX), p38β; details: read-out: Kd (mean ± s.d.)
T4 construct: purchased DiscoverX
T4 sequence (Q15759 whole entry): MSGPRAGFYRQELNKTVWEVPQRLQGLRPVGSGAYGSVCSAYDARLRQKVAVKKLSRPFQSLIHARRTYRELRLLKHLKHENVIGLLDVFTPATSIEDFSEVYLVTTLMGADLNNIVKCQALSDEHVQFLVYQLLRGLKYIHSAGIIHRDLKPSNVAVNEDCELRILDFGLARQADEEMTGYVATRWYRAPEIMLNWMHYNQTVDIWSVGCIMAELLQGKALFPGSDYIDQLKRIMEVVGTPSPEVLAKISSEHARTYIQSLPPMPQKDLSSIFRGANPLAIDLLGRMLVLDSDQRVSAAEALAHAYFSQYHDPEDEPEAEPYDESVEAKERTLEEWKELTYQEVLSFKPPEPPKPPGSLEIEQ
From the text: as §1

HBSMCs = assay: CSE-evoked IL-8 release in human bronchial smooth muscle cells; assay type: cell-based
Description: Cigarette smoke extract (CSE) was generated as reported previously ([Moretto et al., 2012]). Briefly, aqueous CSE was obtained from the combustion of four cigarettes (Marlboro Red, 12 mg tar, 0.9 mg nicotine each) bubbled through 50 mL of the culture medium and subsequently filtered through a 0.2-μm-pore filter (Millipore, Billerica, MA). To ensure reproducibility among different CSE batches, the absorbance [optical density (OD)] measured at 320 nm was used as a measure of the “strength” of the extract. Dilutions were made with culture media to obtain the desired absorbance. The CSE was freshly prepared on the day of the experiment and immediately used after preparation. Human bronchial smooth muscle cells (HBSMCs) were seeded in DMEM with 10% FBS (50 U/mL penicillin, 0.05 mg/mL streptomycin, and 2 mM L-glutamine) in 48-well plates at a density of 10,000 cells/well, grown to ∼80%–90% confluence and incubated overnight in serum-free DMEM before treatments. All the treatments were performed in serum-free DMEM. The cells were pretreated for 30 min with either the vehicle or CHF6297 or losmapimod before stimulation with freshly prepared CSE, TNF-α, (1 ng/mL), or the vehicle for 18 h at 37°C. Human IL-8 was measured in the collected supernatants by use of a paired-antibody quantitative ELISA kit (BioSource International, Camarillo, CA).

rat PBMCs = assay: TNF-α release in LPS-stimulated PBMCs; assay type: cell-based
Description: Peripheral blood mononuclear cells (PBMCs) were isolated from the blood of healthy human volunteers and Wistar rats (250–350 gr; Charles River, Calco, Italy) using a standard density gradient centrifugation technique. The citrated blood was placed onto Histopaque^TM and centrifuged. The PBMCs were then removed from the density gradient interface and washed in phosphate-buffered saline (PBS). The PBMCs were suspended in RPMI 1640 medium (without serum), aliquoted into a 96-well plate, and incubated at 37°C for 3 h in a humidified incubator. After incubation, the medium was replaced (with a medium containing 1% fetal bovine serum), and the plate was incubated at 37°C, for 1 h, in the presence of a test compound or the appropriate vehicle. LPS (10 ng/mL), or an appropriate vehicle control, was then added to the cells, and the plate was returned to the incubator for 18 h. Cell-free supernatants were removed and assayed for TNF-α levels using MSD plates on the SECTOR Imager 6000 (Meso Scale).

[1] = n = 3, read-out: IC50 (mean ± s.d.)

T1 sequence (Q16539 whole entry): as the sequence (Q16539 whole entry) above

With `C[C@H]1CCCCN1c1nnc2ccc(O[C@@H]3CC[C@H](NC(=O)Nc4cc(C(C)(C)C)nn4-c4cnn(CCN(C)C)c4)c4ccccc43)cn12` [CHF6297] the Kd (human p38α) was 0.24 ± 0.06 nM, the “potency against IL-8 release evoked by TNF-α” value (BEAS-2B) was “comparable potency” and the “IC50 fold-difference vs. human p38α” value (human p38γ) was 6,750. The IC50 (human p38γ; [1]) was 945 ± 58 nM, the “IC50 fold-difference vs. human p38α” value (human p38α (MAPK14)) was 1 and the IC50 (human p38α (MAPK14); [1]) was 0.14 ± 0.06 nM. For the same compound, the Kd (human p38β) was 1.11 ± 0.6 nM, the “maximum inhibition of IL-8” value (HBSMCs; CSE-evoked) was 100% and the IC50 (HBSMCs; Homo sapiens, 18 h) was 0.79 nM. The IC50 (rat PBMCs; PBMC, LPS 10 ng/mL, 18 h) was 1.4 nM and the “fold less potent than AZD7624” value (rat PBMCs; TNF-α release) was 7 fold.
